In ChEMBL document CHEMBL5500354, “Novel selective agents for the degradation of AR/AR-V7 to treat advanced prostate cancer” (Eur J Med Chem, 2024):

What was measured:
[1] = target: T1, Androgen receptor (Homo sapiens, UniProt P10275); experiment: Binding affinity to human androgen receptor transfected in HEK293 cell membrane co-transfected with ARC1 assessed as inhibition of [3H]-methyltrienolone binding to receptor incubated for 30 mins by competitive ligand binding assay
T1 sequence (P10275 whole entry): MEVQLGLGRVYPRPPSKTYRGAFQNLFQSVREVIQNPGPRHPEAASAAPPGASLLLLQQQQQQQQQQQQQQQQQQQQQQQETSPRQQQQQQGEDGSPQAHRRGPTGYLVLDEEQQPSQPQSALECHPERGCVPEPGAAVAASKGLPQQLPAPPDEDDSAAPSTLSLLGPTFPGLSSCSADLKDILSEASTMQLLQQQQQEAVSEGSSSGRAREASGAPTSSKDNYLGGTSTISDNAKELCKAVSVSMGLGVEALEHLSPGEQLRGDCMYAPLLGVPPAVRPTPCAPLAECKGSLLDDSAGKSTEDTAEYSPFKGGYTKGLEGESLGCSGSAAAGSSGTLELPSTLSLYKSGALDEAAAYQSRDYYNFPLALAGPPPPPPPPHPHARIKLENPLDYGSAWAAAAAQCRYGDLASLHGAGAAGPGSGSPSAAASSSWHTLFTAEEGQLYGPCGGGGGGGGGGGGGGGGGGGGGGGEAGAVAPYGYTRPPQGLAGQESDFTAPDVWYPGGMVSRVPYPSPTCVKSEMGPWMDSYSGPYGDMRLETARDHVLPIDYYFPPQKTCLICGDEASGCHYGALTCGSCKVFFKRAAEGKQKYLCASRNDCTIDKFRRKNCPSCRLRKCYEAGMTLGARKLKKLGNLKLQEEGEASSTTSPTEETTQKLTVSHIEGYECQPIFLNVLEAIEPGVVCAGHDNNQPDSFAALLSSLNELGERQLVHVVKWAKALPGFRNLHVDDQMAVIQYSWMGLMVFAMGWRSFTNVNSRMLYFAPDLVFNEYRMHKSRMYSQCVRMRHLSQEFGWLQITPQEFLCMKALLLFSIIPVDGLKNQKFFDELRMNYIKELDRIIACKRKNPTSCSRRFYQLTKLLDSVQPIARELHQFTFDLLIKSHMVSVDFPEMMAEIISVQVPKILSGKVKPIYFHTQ

[2] = test system: LNCaP; experiment: Antiproliferative activity against human LNCaP cells assessed as reduction in cell viability incubated for 24 hrs by CCK8 assay
[3] = test system: CWR22R; experiment: Antiproliferative activity against human 22Rv1 cells assessed as reduction in cell viability incubated for 24 hrs by CCK8 assay; conditions: 22Rv1, 24 h
[4] = target: T1, Androgen receptor
Description: Antagonist activity at androgen receptor (unknown origin) transfected in HEK293T cells co-transfected with luciferase reporter gene assessed as inhibition of transcriptional activity incubated for 18 to 20 hrs by luminescence plate reader analysis

[5] = test system: LNCaP; experiment: cells; conditions: Homo sapiens, 24 h, read-out: INH
Description: Antiproliferative activity against human LNCaP cells assessed as inhibition rate at 10 uM incubated for 24 hrs by CCK8 assay relative to control

[6] = test system: CWR22R; experiment: cells; conditions: Homo sapiens, 22Rv1, 24 h, read-out: INH
Description: Antiproliferative activity against human 22Rv1 cells assessed as inhibition rate at 10 uM incubated for 24 hrs by CCK8 assay relative to control

[7] = target: T2, Androgen receptor (Rattus norvegicus, UniProt P15207); experiment: Binding affinity to GST/His-tagged recombinant rat androgen receptor (606 to 902 residues) ligand binding domain expressed in baculovirus expression system assessed as dissociation constant by Biolayer interferometric analysis
T2 sequence (P15207 whole entry): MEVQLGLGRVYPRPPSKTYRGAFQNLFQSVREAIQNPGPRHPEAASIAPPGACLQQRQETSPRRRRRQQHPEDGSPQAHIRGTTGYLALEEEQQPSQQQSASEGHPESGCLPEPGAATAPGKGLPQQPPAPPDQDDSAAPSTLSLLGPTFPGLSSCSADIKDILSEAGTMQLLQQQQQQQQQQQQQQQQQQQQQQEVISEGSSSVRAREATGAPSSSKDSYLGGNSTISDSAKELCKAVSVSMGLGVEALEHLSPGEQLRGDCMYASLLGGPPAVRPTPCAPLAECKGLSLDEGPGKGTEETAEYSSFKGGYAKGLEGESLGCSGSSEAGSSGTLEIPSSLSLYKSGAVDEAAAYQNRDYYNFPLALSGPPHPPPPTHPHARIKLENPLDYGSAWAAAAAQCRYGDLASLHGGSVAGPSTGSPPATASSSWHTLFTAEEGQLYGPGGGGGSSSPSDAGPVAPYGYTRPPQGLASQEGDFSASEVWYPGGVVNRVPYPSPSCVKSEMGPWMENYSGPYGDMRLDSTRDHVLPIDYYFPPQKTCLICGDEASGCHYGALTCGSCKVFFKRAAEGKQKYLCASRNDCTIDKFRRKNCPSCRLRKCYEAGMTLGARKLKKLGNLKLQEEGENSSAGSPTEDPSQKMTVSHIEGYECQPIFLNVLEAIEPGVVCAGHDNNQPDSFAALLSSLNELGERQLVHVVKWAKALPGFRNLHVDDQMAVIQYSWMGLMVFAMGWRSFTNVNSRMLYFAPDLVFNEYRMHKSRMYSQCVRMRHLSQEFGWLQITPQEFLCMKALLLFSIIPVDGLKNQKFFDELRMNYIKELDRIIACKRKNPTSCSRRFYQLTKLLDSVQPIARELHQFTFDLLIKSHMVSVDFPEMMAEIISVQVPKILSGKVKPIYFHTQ

| IC50 [1] [nM] | IC50 [2] [nM] | IC50 [4] [nM] | Kd [7] [nM] | Compound | IC50 [3] [nM] | inhibition at 10 µM [5] [%] | inhibition at 10 µM [6] [%] |
| --- | --- | --- | --- | --- | --- | --- | --- |
| 6.81 | 6860 | 394 | – | N#Cc1ccc(O[C@H]2CC[C@H](NC(=O)c3ccc(N4CCC(CN5CCN(c6ccc(NC7CN(CCCF)C7)cc6)CC5)CC4)nn3)CC2)cc1Cl | 5120 | > 50 | > 50 |
| 3.67 | – | – | – | N#Cc1ccc(O[C@H]2CC[C@H](NC(=O)c3ccc(N4CCC(CC5CN(CCCF)C5)CC4)nn3)CC2)cc1Cl | – | 21 | < 10 |
| 5.41 | – | > 10000 | – | N#Cc1ccc(O[C@H]2CC[C@H](NC(=O)c3ccc(N4CCC(CNC5CN(CCCF)C5)CC4)nn3)CC2)cc1Cl | – | 10 | < 10 |
| – | – | – | – | N#Cc1ccc(O[C@H]2CC[C@H](NC(=O)c3ccc(-c4ccc(NCCCCCF)cc4)nn3)CC2)cc1Cl | – | < 10 | < 10 |
| – | – | – | – | CCCNc1ccc(CC2CCN(c3ccc(C(=O)N[C@H]4CC[C@H](Oc5ccc(C#N)c(Cl)c5)CC4)nn3)CC2)cc1 | – | < 10 | < 10 |
| – | – | – | – | N#Cc1ccc(O[C@H]2CC[C@H](NC(=O)c3ccc(-c4ccc(NC5CN(CCCF)C5)cc4)nn3)CC2)cc1Cl | – | 13 | 28 |
| 12.4 | – | > 10000 | – | N#Cc1ccc(O[C@H]2CC[C@H](NC(=O)c3ccc(N4CCC(CN5CCN(CCCC(F)(F)C(F)(F)F)CC5)CC4)nn3)CC2)cc1Cl | – | < 10 | < 10 |
| – | – | – | – | N#Cc1ccc(O[C@H]2CC[C@H](NC(=O)c3ccc(N4CCC(CN5CCN(CC[S+]([O-])CCCC(F)(F)C(F)(F)F)CC5)CC4)nn3)CC2)cc1Cl (stereo partly drawn) | – | 13 | < 10 |
| – | – | – | – | N#Cc1ccc(O[C@H]2CC[C@H](NC(=O)c3ccc(N4CCC(CN5CCN(C6CN(CCCF)C6)CC5)CC4)nn3)CC2)cc1Cl | – | 17 | 29 |
| – | – | – | – | N#Cc1ccc(O[C@H]2CC[C@H](NC(=O)c3ccc(N4CCC(Cc5ccc(NCCCF)cc5)CC4)nn3)CC2)cc1Cl | – | < 10 | < 10 |
| – | – | – | 590 | N#Cc1ccc(O[C@H]2CC[C@H](NC(=O)c3ccc(N4CCC(Cc5ccc(NC6CN(CCCF)C6)cc5)CC4)nn3)CC2)cc1Cl | – | – | – |
| – | – | – | – | N#Cc1ccc(O[C@H]2CC[C@H](NC(=O)c3ccc(N4CCC(CN5CCN(c6ccc(/C=C/C(=O)O)cc6)CC5)CC4)nn3)CC2)cc1Cl | – | 36 | < 10 |
| – | – | – | – | N#Cc1ccc(O[C@H]2CC[C@H](NC(=O)c3ccc(N4CCC(N5CC(CF)C5)CC4)nn3)CC2)cc1Cl | – | 15 | < 10 |

| Compound | IC50 [1] [nM] | IC50 [2] [nM] | IC50 [4] [nM] | Kd [7] [nM] | IC50 [3] [nM] | inhibition at 10 µM [5] [%] | inhibition at 10 µM [6] [%] |
| --- | --- | --- | --- | --- | --- | --- | --- |
| N#Cc1ccc(O[C@H]2CC[C@H](NC(=O)c3cccnn3)CC2)cc1Cl | 1.52 | – | 60.8 | – | – | < 10 | < 10 |
